We go through four substances from patent US20080280326A1, “Novel Gonadotropin-Releasing Hormone, Precursor Peptides Thereof and Genes Encoding the Same” (SUNTORY LIMITED, priority 2000, published 2008).

For one assay, the system named is heart of O. vulgaris. In words: Measurement of the heart beat activity of O. vulgaris (isolated cannulated heart). The following applies: for variation of the heart beat of O. vulgaris (heart rate and amplitude): 10^-5 M added to the chamber (FIG. 3). The arrangement: species or system Octopus vulgaris. As to the method: The heart beat activity of O. vulgaris was measured according to the method proposed by Morishita, et al. (Fumihiro Morishita, Biochem. Biophys. Res. Commun., 240, 354-358 (1997)). Specifically, the heart was taken from O. vulgaris and the atria were removed from the heart. A cannula was inserted from each atrium into the ventricle and was at the same time connected to a chamber (80 ml in volume) by tying with a cotton thread. The aorta was pinched to prevent leakage of liquid from the ventricle and was connected to a tension transducer. This completed preparation of the heart to serve as a specimen for the assay. Each cannula was adjusted to permit a 1 to 2 ml/min flow of artificial sea water (containing 0.1% glucose). Each of the analytes to be assayed was dissolved in 1 ml of the same artificial sea-water, and the resulting solution was injected into the heart through the cannulae. The variation of the heart beat was recorded.
As test compounds, Compound (1) isolated from the brains of O. vulgaris, Compound (2), and cGnRH-II, a vertebrate GnRH isolated from chickens and used to derive Compound (2) therefrom, were used.

Assay [1] deals with Cells taken from the pituitary glands of quails. In words: Release of luteinizing hormone (LH) from cultured quail pituitary gland cells, radioimmunoassay. It is filed as cell-based. To be noted: final concentrations 0, 10^-9 to 10^-5 M, 4 hrs incubation, one-way ANOVA (FIG. 4). The method, then: Cells taken from the pituitary glands of quails were inoculated onto a 24-well plate at 7.5×10^5 cells/well (substantially equivalent to two animals). The cells were then incubated for 3 days in a culture medium containing fetal calf serum. The cells were incubated for another 24 hrs in 1 ml serum-free medium. After the incubation period, the peptide solution was added to the culture medium to final concentrations of 0, 10^−9, 10^−8, 10^−7, 10^−6 and 10^−5 M, respectively, and the cultures were further incubated for 4 hrs. The supernatant was then collected from each culture. For each concentration, 5 samples were subjected to radioimmunoassay and measurements were taken. The data were statistically analyzed by one-way analysis of variance (ANOVA).

Square brackets hold non-standard residues; d marks the D form. pGlu = O=C1CC[C@@H](C(=O)O)N1

With “<Glu-Asn-Tyr-His-Phe-Ser-Asn-Gly-Trp-His-Pro-Gly-NH2 ([pGlu]NYHFSNGWHPG-NH2; listed as Octopus vulgaris) [Compound (1)]”, the “variation of the heart beat of O. vulgaris” value with heart of O. vulgaris (amount of Compound (1) corresponding to one specimen of O. vulgaris added to the chamber (FIG. 2)) is reported as “enhanced the heart beat of O. vulgaris”. Also, the “cardioactivity toward the heart beat of O. vulgaris, synthetic versus naturally-occurring peptide” value in the assay with heart of O. vulgaris (purified synthetic peptide of Example 3) is recorded as “same cardioactivity toward the heart beat of O. vulgaris as did the naturally-occurring peptide”. In addition, the “release of luteinizing hormone (LH)” value in assay [1] is given as “significantly increased the release of luteinizing hormone (LH)”.
Consider “<Glu-Asn-Tyr-His-Trp-Ser-His-Gly-Trp-Tyr-Pro-Gly-NH2 ([pGlu]NYHWSHGWYPG-NH2; SMILES NC(=O)CNC(=O)[C@@H]1CCCN1C(=O)[C@H](Cc1ccc(O)cc1)NC(=O)[C@H](Cc1c[nH]c2ccccc12)NC(=O)CNC(=O)[C@H](Cc1c[nH]cn1)NC(=O)[C@H](CO)NC(=O)[C@H](Cc1c[nH]c2ccccc12)NC(=O)[C@H](Cc1c[nH]cn1)NC(=O)[C@H](Cc1ccc(O)cc1)NC(=O)[C@H](CC(N)=O)NC(=O)[C@@H]1CCC(=O)N1) [Compound (2), cGnRH-II with Asn-Tyr inserted between the first <Glu and the second His residues]”, for which the “variation of the heart beat of O. vulgaris (heart rate and amplitude)” value in the assay with heart of O. vulgaris was “enhanced the heart beat of O. vulgaris by increasing both the heart rate and the amplitude of the heart beat”.
Turning to “<Glu-His-Phe-Ser-Asn-Gly-Trp-His-Pro-Gly-NH2 ([pGlu]HFSNGWHPG-NH2; SMILES NC(=O)CNC(=O)[C@@H]1CCCN1C(=O)[C@H](Cc1c[nH]cn1)NC(=O)[C@H](Cc1c[nH]c2ccccc12)NC(=O)CNC(=O)[C@H](CC(N)=O)NC(=O)[C@H](CO)NC(=O)[C@H](Cc1ccccc1)NC(=O)[C@H](Cc1c[nH]cn1)NC(=O)[C@@H]1CCC(=O)N1; listed as Octopus vulgaris) [Compound (3), decapeptide obtained by deletion of amino acids 2 and 3 from the N-terminal region of Compound (1)]”, the “release of luteinizing hormone (LH)” value in assay [1] is on record as “increase the release of luteinizing hormone (LH)”.
For the substance “cGnRH-II: chicken-II-type GnRH, a vertebrate decapeptide GnRH isolated from chickens, used to derive Compound (2) ([pGlu]HWSHGWYPG-NH2; ends and bridges not checked; UniProt P68072 1-10, looked up) [reference compound]”, the “variation of the heart beat of O. vulgaris (heart rate and amplitude)” value in the assay with heart of O. vulgaris was “did not have any effect on the heart rate or the amplitude of the heart beat of O. vulgaris”.
